“Also recorded” adds a separate entry of the source. Where only a bound is given, the exact number is not on record here.

As usually defined, the CC50 is the concentration at which the toxic effect on the cells reaches its halfway point. A high value points to better tolerance by the cells. By EC50 is commonly meant the concentration that produces a half-maximal response.

Format in all cases: cell-based
The subject of series [1] is Subgenomic HCV RNA replicon cells (LucNeo#2). In words: Cytotoxicity (cell survival rate) by tetrazolium staining in luciferase replicon cells. The following applies: for CC50: LucNeo#2 subgenomic replicon cells. Here is the method:
A tetrazolium staining solution (10 μl, Seikagaku Corporation, Tokyo) was added to each well in order to examine cytotoxicity (a cell survival rate). After the cells were incubated for 1 hour, the absorbance at the characteristic absorption wavelength (450 nm) was measured with the use of a microplate reader.
(§1) Based on the luciferase assay results, the HCV genomic RNA level was measured, and a percentage (%) relative to the level of RNA of a control group to which the test compound was not administered was determined. Based on the results of tetrazolium staining, cell survival rates (%) of the group to which the test compound had been administered and of a control group were determined. The dose-response relationship of the test compound was analyzed based on the results of quantitative luciferase assays to determine EC50(μM), and the dose-response relationship of the test compound was analyzed based on the results of tetrazolium staining to determine CC50.

The subject of series [2] is Subgenomic HCV RNA replicon cells (LucNeo#2) having a luciferase gene. In words: Anti-HCV activity using replicon cells (luciferase assay). The following applies: luciferase assay; for EC50: LucNeo#2 subgenomic replicon cells, 3 days, read-out: EC50; for anti-HCV activity (in words): Table 2, FIGS. 13 to 15. Here is the method:
Subgenomic HCV RNA replicon cells (LucNeo#2, Goto et al., Biochem. Biophys. Res. Commun., 2006, vol. 343, pp. 879-884) having a luciferase gene were suspended in a Dulbecco's modified Eagle medium (DMEM) containing 10% FBS and 1 mg/ml G418 (Sigma). The cells were incubated for 24 hours and then cultured in G418-free fresh media each containing test compounds at various concentrations for 3 days. In order to perform luciferase assays, the cells were washed with PBS and treated with a lysate for 10 minutes with intermittent agitation. A cell lysate (25 μl) was transferred to a white microtiter plate. Luciferase assay reagents (100 μl, Promega, Tokyo) were added to each well and the luciferase activity was measured with a luminometer.
as §1
(In general: A replicon is a self-replicating genome or part of one, used to study replication in cells.)

Series [3] has as its system #50-1 (subgenomic replion) cells. In words: Anti-HCV activity using subgenomic replicon cells (HCV genomic RNA, real-time RT-PCR). Conditions: concentration of 10 μM, relative to control group without test compound. Here is the method: The 70% confluent #50-1 (subgenomic replion) cells or NNC #2 (full-length replicon) cells (Ishii et al., J. Virol., 2006, vol. 80, pp. 4510-4520) were dispersed in a culture bottle with the aid of trypsin, and the resulting dispersion was resuspended in a high-glucose Dulbecco's modified Eagle medium (DMEM) containing 10% FCS and 1 mg/ml G418 (Sigma) (see FIGS. 1 and 2). The cell suspension adjusted at 5×10^4 cells/ml with the use thereof was added to wells of a 96-well culture plate at 100 μl/well (the final cell density in each well: […]), and culture was conducted at 37° C. Supernatants of culture media were removed from wells of the plate on the following day, 200 μl each of the solutions of test compounds appropriately diluted with a G418-free culture solution were added, and culture was further continued. Samples were prepared from cells in each well 3 days later with the use of the TaqMan® Gene Expression Cell-to-CT® (Applied Biosystems). Reverse transcription was carried out in accordance with the protocols for the ABI 7500 PCR systems (Applied Biosystems) at 37° C. for 60 minutes, 95° C. for 5 minutes, and retained at 4° C. Real-time PCR was carried out in accordance with the protocols for the ABI 7500 real-time PCR systems (Applied Biosystems) at 50° C. for 2 minutes, 95° C. for 10 minutes, 40 cycles at 95° C. for 15 seconds, and 60° C. for 1 minute.
In accordance with the method mentioned above, the level of the HCV genomic RNA and, as the internal standard, the level of mRNA of glyceraldehyde-3-phosphate dehydrogenase (GAPDH) (a house keeping gene of the host cells) were assayed, and a percentage (%) relative to the level of RNA of a control group to which the test compound was not administered was determined. The dose-response relationship of the test compound was analyzed based on the measured level of the HCV genomic RNA to determine EC50, and the dose-response relationship of the test compound was analyzed based on the measured level of GAPDH RNA to determine CC50. The term “EC50” and “CC50” used herein refers to 50% effective concentration (μM) and 50% cytotoxic concentration (μM), respectively.

For the compound `CCCCn1c(=O)c2ccccc2c2cc(C(O)(C(F)(F)F)C(F)(F)F)c3c(c21)OCO3` [HA-718, 4-butyl-1′-(1′,1′,1′,3′,3′,3′-hexafluoro-2′-hydroxypropan-2′-yl)-[1,3]dioxolo[4,5-c]phenanthridin-5(4H)-one], the CC50 in series [1] is 24.2 µM. Also, the EC50 in series [2] came to 290 nM.

`CCCCn1c(=O)c2cc(OC)ccc2c2cc(C(O)(C(F)(F)F)C(F)(F)F)c3c(c21)OCO3` [HA-719, 4-butyl-11-(1′,1′,1′,3′,3′,3′-hexafluoro-2′-hydroxypropan-2′-yl)-7-methoxy-[1,3]dioxolo[4,5-c]phenanthridin-5(4H)-one] had a CC50 in series [1] of 6.4 µM. Besides, the “cytotoxicity (in words)” value in series [1] (Table 2) was “high degree of cytotoxicity”. Moreover, in series [2], the EC50 is 50 nM and the “anti-HCV activity (in words)” value is on record as “very high; also recorded: high degree of anti-HCV activity”.

In series [1], `CCCCn1c(=O)c2ccccc2c2cc(C(O)(C(F)(F)F)C(F)(F)F)c(OC)c(OC)c21` [HA-726, 5-butyl-2-(1′,1′,1′,3′,3′,3′-hexafluoro-2′-hydroxypropan-2′-yl)-3,4-dimethoxy-phenanthridin-6(5H)-one] returned a CC50 of 10.4 µM. The concentration giving a half-maximal response (EC50) in series [2] was 2600 nM.

As to `CCCCn1c(=O)c2cc(OC)ccc2c2cc(C(O)(C(F)(F)F)C(F)(F)F)c(OC)c(OC)c21` [HA-727, 5-butyl-2-(1′,1′,1′,3′,3′,3′-hexafluoro-2′-hydroxypropan-2′-yl)-3,4,8-trimethoxy-phenanthridin-6(5H)-one], in series [1], the CC50 is 6.8 µM. Further, the EC50 in series [2] was 1800 nM.

`CCCCn1c(=O)c2cc(OC)ccc2c2cc(C(OCc3ccccc3)(C(F)(F)F)C(F)(F)F)c3c(c21)OCO3` [HA-758, 11-(2′-benzyloxy-1′,1′,1′,3′,3′,3′-hexafluoropropan-2′-yl)-4-butyl-7-methoxy-[1,3]-dioxolo[4,5-c]phenanthridin-5(4H)-one] gave a CC50 in series [1] greater than 100 µM. In addition, in series [2], the EC50 was 1710 nM and the “anti-HCV activity (in words)” value is “high degree of anti-HCV activity at non-cytotoxic concentrations; also recorded: high degree of anti-HCV activity”.

For `CCCCn1c(=O)c2cc(OC)c(OC)cc2c2cc(C(O)(C(F)(F)F)C(F)(F)F)ccc21` [KZ25, 5-butyl-2-(1′,1′,1′,3′,3′,3′-hexafluoro-2′-hydroxypropan-2′-yl)-8,9-dimethoxy-phenanthridin-6(5H)-one], the CC50 in series [1] stood at 2.8 µM. In addition, in series [2], the EC50 was greater than 2800 nM.

Consider `CCCCn1c(=O)c2cc3c(cc2c2cc(C(O)(C(F)(F)F)C(F)(F)F)ccc21)OCO3` [KZ26, 5-butyl-2-(1′,1′,1′,3′,3′,3′-hexafluoro-2′-hydroxypropan-2′-yl)-[1,3]dioxolo[4,5-j]phenanthridin-6(5H)-one], for which the CC50 in series [1] was greater than 100 µM. Besides, in series [2], the EC50 is 2300 nM and the “anti-HCV activity (in words)” value is given as “high degree of anti-HCV activity at non-cytotoxic concentrations”.

As for `CCCCn1c(=O)c2c(OC)c(OC)ccc2c2cc(C(O)(C(F)(F)F)C(F)(F)F)ccc21` [KZ27, 5-butyl-2-(1′,1′,1′,3′,3′,3′-hexafluoro-2′-hydroxypropan-2′-yl)-7,8-dimethoxy-phenanthridin-6(5H)-one], it took 14.2 µM to reach half-maximal cytotoxicity in series [1] (CC50). Moreover, in series [2], the EC50 came to 5500 nM.

Take `CCCCn1c(=O)c2cc(OC)c(OC)c(OC)c2c2cc(C(O)(C(F)(F)F)C(F)(F)F)ccc21` [KZ28, 5-butyl-2-(1′,1′,1′,3′,3′,3′-hexafluoro-2′-hydroxypropan-2′-yl)-8,9,10-trimethoxy-phenanthridin-6(5H)-one]: half-maximal cytotoxicity in series [1] (CC50) was put at 9.4 µM. Besides, the EC50 in series [2] was found to be 8300 nM.

Consider `CCCCn1c(=O)c2ccccc2c2c(OC)c(C(OC)(C(F)(F)F)C(F)(F)F)cc(OC)c21` [KZ29, 5-butyl-2-(1′,1′,1′,3′,3′,3′-hexafluoro-2′-methoxypropan-2′-yl)-1,4-dimethoxy-phenanthridin-6(5H)-one], for which the CC50 in series [1] was greater than 100 µM. Further, the EC50 in series [2] amounted to 30400 nM.

`CCCCn1c(=O)c2cc(OC)ccc2c2c(OC)c(C(OC)(C(F)(F)F)C(F)(F)F)cc(OC)c21` [KZ30, 5-butyl-2-(1′,1′,1′,3′,3′,3′-hexafluoro-2′-methoxypropan-2′-yl)-1,4,8-trimethoxy-phenanthridin-6(5H)-one] registered a CC50 in series [1] greater than 100 µM. Besides, in series [2], the EC50 turned out to be 9200 nM and the “anti-HCV activity (in words)” value is “high degree of anti-HCV activity at non-cytotoxic concentrations”.

Take `CCCCn1c(=O)c2c(OC)cccc2c2cc(C(O)(C(F)(F)F)C(F)(F)F)ccc21` [KZ31, 5-butyl-2-(1′,1′,1′,3′,3′,3′-hexafluoro-2′-hydroxypropan-2′-yl)-7-methoxy-phenanthridin-6(5H)-one]: in series [1], the CC50 came to 12.6 µM. Also, the EC50 in series [2] was 10000 nM.

`CCCCn1c(=O)c2ccc(OC)cc2c2cc(C(O)(C(F)(F)F)C(F)(F)F)ccc21` [KZ32, 5-butyl-2-(1′,1′,1′,3′,3′,3′-hexafluoro-2′-hydroxypropan-2′-yl)-9-methoxy-phenanthridin-6(5H)-one] had a CC50 in series [1] of 28.9 µM. For the same compound, the EC50 in series [2] came out at 16600 nM.

As to `CCCCn1c(=O)c2cccc(OC)c2c2cc(C(O)(C(F)(F)F)C(F)(F)F)ccc21` [KZ33, 5-butyl-2-(1′,1′,1′,3′,3′,3′-hexafluoro-2′-hydroxypropan-2′-yl)-10-methoxy-phenanthridin-6(5H)-one], it took 6.9 µM to reach half-maximal cytotoxicity in series [1] (CC50). Moreover, the EC50 in series [2] amounted to 5000 nM.

`CCCCn1c(=O)c2ccccc2c2c(O)c(C(O)(C(F)(F)F)C(F)(F)F)ccc21` [KZ35, 5-butyl-2-(1′,1′,1′,3′,3′,3′-hexafluoro-2′-hydroxypropan-2′-yl)-1-hydroxy-phenanthridin-6(5H)-one]: the CC50 in series [1] is 52.3 µM. Further, in series [2], the EC50 stood at 44000 nM.

In series [1], `CCCCn1c(=O)c2ccccc2c2cc(C(O)(C(F)(F)F)C(F)(F)F)c(OC)cc21` [KZ36, 5-butyl-2-(1′,1′,1′,3′,3′,3′-hexafluoro-2-hydroxypropan-2′-yl)-3-methoxy-phenanthridin-6(5H)-one] displayed a CC50 of 5.7 µM. In series [2], the EC50 was 2200 nM.

On to `CCCCn1c(=O)c2ccccc2c2cc(C(OCc3ccccc3)(C(F)(F)F)C(F)(F)F)c(OC)cc21` [KZ37, 2-(2′-benzyloxy-1′,1′,1′,3′,3′,3′-hexafluoropropan-2′-yl)-5-butyl-3-methoxy-phenanthridin-6(5H)-one], for which the half-maximal cytotoxic concentration (CC50) in series [1] is greater than 100 µM. In series [2], the EC50 stood at 2600 nM and the “anti-HCV activity (in words)” value is reported as “high degree of anti-HCV activity at non-cytotoxic concentrations; also recorded: high degree of anti-HCV activity”.

In series [1], `CCCCn1c(=O)c2c(OC)cc(OC)cc2c2cc(C(O)(C(F)(F)F)C(F)(F)F)ccc21` [KZ38, 5-butyl-2-(1′,1′,1′,3′,3′,3′-hexafluoro-2′-hydroxypropan-2′-yl)-7,9-dimethoxy-phenanthridin-6(5H)-one] displayed a CC50 of 8.2 µM. In series [2], the EC50 stood at 2600 nM.

For `CCCCn1c(=O)c2c(OC)c(OC)c(OC)cc2c2cc(C(O)(C(F)(F)F)C(F)(F)F)ccc21` [KZ39, 5-butyl-2-(1′,1′,1′,3′,3′,3′-hexafluoro-2′-hydroxypropan-2′-yl)-7,8,9-trimethoxy-phenanthridin-6(5H)-one], the midpoint of cytotoxicity in series [1], the CC50, lay at 2 µM. The EC50 in series [2] was greater than 2000 nM.

On to `CCCCn1c(=O)c2ccccc2c2c(C(C)C)cccc21` [MN315-A, 5-butyl-1-isopropylphenanthridin-6(5H)-one], for which the “HCV genomic RNA level” value in series [3] turned out to be 46.3%.

`CCCCn1c(=O)c2ccccc2c2ccc(C(C)C)cc21` [MN315-B, 5-butyl-3-isopropylphenanthridin-6(5H)-one]: the “HCV genomic RNA level” value in series [3] was found to be 14.7%.

The values above are taken from patent publication US20120316342A1, “THERAPEUTIC AGENT FOR HEPATITIS C” (priority 2010, published 2012).
